Results from US20260345590A1, “COMBINATIONS OF ESTROGEN RECEPTOR DEGRADERS AND AKT INHIBITORS” (Arvinas Operations, Inc., priority 2023, published 2026).

Experiments:
AKT isoforms = settings: cited from earlier work
MCF7 cells = experiment: Dose-Response Matrix Assay (cell viability, Cell-Titer Glo, Combenefit synergy analysis); type: cell-based; settings: 8-point curve 100 to 0.046 nM, Day 5
Experimental: Cells were seeded at 2×10^3 cells in 200 μl of media per well in 96 well plates and incubated overnight at 37 °C. […] At Day 5 cell viability was measured using Cell-Titer Glo and CTG data were analyzed with the Combenefit Software (5).

[1] = Biopharmaceutics Classification System classification; type: physicochemical; settings: BCS Class IV
[2] = exposure of epimer Compound C relative to Compound A (preclinical data); type: in vivo
ER = molecular target: T1, ER (Homo sapiens, UniProt P03372); experiment: degradation of the ER
T1 construct: cells or constructs not described in excerpts
T1 sequence (P03372 1-595): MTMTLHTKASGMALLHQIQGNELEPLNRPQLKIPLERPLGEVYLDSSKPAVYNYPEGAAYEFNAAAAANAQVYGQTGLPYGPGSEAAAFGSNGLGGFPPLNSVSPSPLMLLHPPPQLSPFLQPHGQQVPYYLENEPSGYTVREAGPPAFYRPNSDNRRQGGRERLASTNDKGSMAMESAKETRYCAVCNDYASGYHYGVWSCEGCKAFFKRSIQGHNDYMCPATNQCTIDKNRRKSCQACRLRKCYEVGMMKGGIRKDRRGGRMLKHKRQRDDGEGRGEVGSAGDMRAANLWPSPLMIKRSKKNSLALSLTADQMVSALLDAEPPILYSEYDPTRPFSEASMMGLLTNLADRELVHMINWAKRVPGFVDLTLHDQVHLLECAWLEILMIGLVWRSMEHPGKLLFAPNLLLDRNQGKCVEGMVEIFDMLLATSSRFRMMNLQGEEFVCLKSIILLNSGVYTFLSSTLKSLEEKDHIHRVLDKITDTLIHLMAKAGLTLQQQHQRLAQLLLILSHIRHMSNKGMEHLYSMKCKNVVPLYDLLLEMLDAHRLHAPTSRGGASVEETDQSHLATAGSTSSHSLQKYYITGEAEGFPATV

In the case of `Cn1ncc(Cl)c1-c1cc(C(=O)N[C@H](CN)Cc2cccc(F)c2)sc1Cl` [Afuresertib, N-[(2S)-1-amino-3-(3-fluorophenyl)propan-2-yl]-5-chloro-4-(4-chloro-2-methyl-3-pyrazolyl)-2-thiophenecarboxamide], the “mode of AKT kinase inhibition” value (AKT isoforms) is listed as “reversible, ATP-competitive” and the “pan-AKT kinase inhibition potency” value (AKT isoforms; reversible, ATP-competitive) is listed as “low-nanomolar”.

In the case of `NC1(C(=O)N[C@@H](CCO)c2ccc(Cl)cc2)CCN(c2ncnc3[nH]ccc23)CC1` [Capivasertib, 4-amino-N-[(1S)-1-(4-chlorophenyl)-3-hydroxypropyl]-1-(7H-pyrrolo[2,3-d]pyrimidin-4-yl)piperidine-4-carboxamide], the “binding to and inhibition of AKT isoforms” value (AKT isoforms) is given as “binds to and inhibits all AKT isoforms”.

For `O=C1CC[C@H](N2Cc3cc(N4CCN(CC5CCN(c6ccc([C@@H]7c8ccc(O)cc8CC[C@@H]7c7ccccc7)cc6)CC5)CC4)ccc3C2=O)C(=O)N1` [Compound A, (S)-3-(5-(4-((1-(4-((1R,2S)-6-hydroxy-2-phenyl-1,2,3,4-tetrahydronaphthalen-1-yl)phenyl)piperidin-4-yl)methyl)piperazin-1-yl)-1-oxoisoindolin-2-yl)piperidine-2,6-dione], the “synergy on cell viability” value (MCF7 cells; combination with afuresertib) was “evidence of synergy”, the “synergy on cell viability” value (MCF7 cells; combination with capivasertib) was “evidence of synergy” and the permeability [1] was “low permeability”. For the same compound, the solubility [1] was “low solubility”.

For `O=C1CC[C@@H](N2Cc3cc(N4CCN(CC5CCN(c6ccc([C@@H]7c8ccc(O)cc8CC[C@@H]7c7ccccc7)cc6)CC5)CC4)ccc3C2=O)C(=O)N1` [Compound C], the “exposure of Compound C compared to Compound A” value [2] was < 26% and the “degradation of the ER” value (ER) was “does not degrade the ER”.
